# Assay results taken from patent US5702934A, “Processes for producing an enzyme” (priority 1993, dated 1997).
# Like-named read-outs stand apart in the source and are kept apart here.
# Columns and labels:
# [1] = target: T1, Fusarium oxysporum p45 proteolytic enzyme (p45 maturase, metalloprotease), SEQ ID NO:6 (Fusarium oxysporum, UniProt M1UZ70); assay type: biochemical
# T1 construct: apparently native maturase from F. oxysporum; recombinant p45 also made in A. oryzae
# Protocol: (§1) The tryptic activity is measured in microtiter plates; 100 μl samples are mixed with 100 μl of substrate (Stock: 87 mg/ml L-BAPNA (Sigma) in DMSO, diluted 50-fold in buffer) and the absorption at 405 nm is measured using a Thermomax microplate reader from Molecular Devices.
# (§2) Metalloproteases contain a catalytic zinc metal center which participates in the hydrolysis of the peptide backbone. The active zinc center differentiates these proteases from calpains whose activities are dependent upon the presence of calcium. Confirmation of a protease as a metallo-protease is loss of proteolytic activity accomplished by removal of the zinc center with 1,10-phenanthroline (1 mM) followed by titration with Zn^2+ (0.1-100μM) to restore full activity.
# [2] = target: T2, trypsin-like Fusarium oxysporum protease (F. oxysporum DSM 2672), SEQ ID NO: 2 (Fusarium oxysporum, UniProt P35049); experiment: Tryptic activity (L-BAPNA) of the trypsin-like protease with or without 1,10-phenanthroline; assay type: biochemical
# T2 construct: made in house; host or cells: Aspergillus oryzae IFO 4177 transformed with pSX183
# Protocol: as §1, §2
# [3] = target: pro-trypsin-like Fusarium oxysporum protease (recombinant proenzyme form of the trypsin-like F. oxysporum protease) (Fusarium oxysporum DSM 2672)
molecule,measurement,setting,value
"c1cnc2c(c1)ccc1cccnc12 [1,10-phenanthroline]",Maturase activity upon addition of inhibitor (in words),"[1]; 1 mM 1,10-phenanthroline",halted
same,Tryptic Activity (Δ Abs/min × 10^-4) released by p45 Maturase from pro-trypsin-like F. oxysporum protease,"[1]; 1,10-phenanthroline 1 mM, no Zn2+, without inhibitor 54.0, proenzyme alone 1.26",2.9 Δ Abs/min × 10^-4
same,inhibition of the trypsin-like protease (in words),"[2]; 1,10-phenanthroline 1 mM",not inhibited
same,Tryptic Activity (Δ Abs/min × 10^-4),"[2]; 1,10-phenanthroline 1 mM, no Zn2+, without inhibitor 34.0",33.8 Δ Abs/min × 10^-4
same,tryptic activity with inhibitor addition,"[2]; 1,10-phenanthroline (1 mM), without inhibitor 34.0×10^-4",33.8×10^-4 ΔAbs/min
O=C(O)CN(CCN(CC(=O)O)CC(=O)O)CC(=O)O [EDTA],Maturase activity upon addition of inhibitor (in words),"[1]; EDTA 1 mM substituted for 1,10-phenanthroline",Analogous results
p45 proteolytic enzyme (maturase) from Fusarium oxysporum,"Tryptic Activity (Δ Abs/min × 10^-4) released from the proenzyme, L-BAPNA assay",[3],0.0054 Δ Abs/min
